# Measured values as given in US6444685B1, “N-(4-sulfonylaryl)Cyclylamine 2-hydroxyethylamines as beta-3 adrenergic receptor agonists” (Wyeth, priority 2000, dated 2002).
# Key:
# [1] = target: T1, human β1-adrenergic receptor (Homo sapiens, UniProt P08588); assay: cAMP accumulation (SPA) in CHO cells transfected with human β1 adrenergic receptor; assay type: cell-based; details: for EC50: CHO cells transfected with human β1-AR, cAMP, 15 min incubation, 10^−8 to 10^−4 M, read-out: beta-1 EC50; for beta-1 (IA) maximal response relative to isoproterenol: IA = % activity compound / % activity isoproterenol at 10^−5 M, CHO human β1 cells
# T1 construct: expressed in transfected cells; host or cells: CHO cells
# Procedure, shortened: (§1)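 CHO cell clones expressing 70–110 fmol/mg protein of receptor were pre-incubated 30 min at 37 °C, then treated 15 min at 37 °C with compound (10^−8 to 10^−4 M) in DMEM with 250 μM IBMX and 1 mM ascorbic acid. cAMP was read by SPA after acid stop. EC50 and IA were expressed relative to maximal 10^−5 M isoproterenol response.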
# [2] = target: T2, human β3 adrenergic receptor (Homo sapiens, UniProt P13945); assay: cAMP accumulation (SPA) in CHO cells transfected with human β3 adrenergic receptor; assay type: cell-based; details: for EC50: CHO cells expressing human β3-AR, cAMP, 30 min incubation, 10^−9 M to 10^−5 M, read-out: beta-3 EC50; for beta-3 (IA) maximal response relative to isoproterenol: IA = % activity compound / % activity isoproterenol at 10^−5 M, CHO human β3 cells
# T2 construct: Full length β3 AR clones (402 amino acids) containing the last 6 amino acids of hβ3— AR are prepared; expressed in transfected cells; host or cells: CHO cells
# Procedure, shortened: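 CHO cells expressing human β3-AR (70–110 fmol/mg protein) treated with compound at 10^−9 to 10^−5 M in DMEM with 250 μM IBMX and 1 mM ascorbic acid, 30 min, 37 °C. cAMP measured by SPA; EC50 derived, and intrinsic activity expressed relative to the maximal response of 10^−5 M isoproterenol.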
# [3] = target: T3, human β2-adrenergic receptor (Homo sapiens, UniProt P07550); assay: cAMP accumulation (SPA) in CHO cells transfected with human β2 adrenergic receptor; assay type: cell-based; details: for EC50: CHO cells transfected with human β2-AR, cAMP, 15 min incubation, 10^−8 to 10^−4 M, read-out: beta-2 EC50; for beta-2 (IA) maximal response relative to isoproterenol: IA = % activity compound / % activity isoproterenol at 10^−5 M, CHO human β2 cells
# T3 construct: expressed in transfected cells; host or cells: CHO cells
# Procedure, shortened: as §1
# T1 sequence (P08588 whole entry): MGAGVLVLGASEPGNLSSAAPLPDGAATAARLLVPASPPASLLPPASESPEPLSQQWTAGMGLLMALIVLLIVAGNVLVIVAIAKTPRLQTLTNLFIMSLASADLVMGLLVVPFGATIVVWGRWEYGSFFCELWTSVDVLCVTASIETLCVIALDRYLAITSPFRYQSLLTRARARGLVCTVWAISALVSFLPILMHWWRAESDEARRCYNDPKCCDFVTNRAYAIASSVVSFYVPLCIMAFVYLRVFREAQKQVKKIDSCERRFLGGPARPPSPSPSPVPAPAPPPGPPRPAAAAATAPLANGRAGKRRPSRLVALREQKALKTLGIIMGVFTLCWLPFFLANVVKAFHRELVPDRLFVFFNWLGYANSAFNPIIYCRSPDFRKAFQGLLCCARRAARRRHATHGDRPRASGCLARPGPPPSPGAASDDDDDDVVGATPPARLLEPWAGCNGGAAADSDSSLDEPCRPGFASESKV
# T2 sequence (P13945 whole entry): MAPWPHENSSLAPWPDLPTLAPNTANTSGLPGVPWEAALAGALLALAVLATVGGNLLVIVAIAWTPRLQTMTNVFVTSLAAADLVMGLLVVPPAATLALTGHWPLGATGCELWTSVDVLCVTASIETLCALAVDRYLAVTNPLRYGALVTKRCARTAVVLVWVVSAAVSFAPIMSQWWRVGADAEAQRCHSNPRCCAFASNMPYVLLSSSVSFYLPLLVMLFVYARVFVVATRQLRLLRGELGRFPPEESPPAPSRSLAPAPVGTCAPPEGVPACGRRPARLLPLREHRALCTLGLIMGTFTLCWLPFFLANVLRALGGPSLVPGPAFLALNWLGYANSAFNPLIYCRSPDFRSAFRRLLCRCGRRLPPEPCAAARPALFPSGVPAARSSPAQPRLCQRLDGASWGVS
# T3 sequence (P07550 whole entry): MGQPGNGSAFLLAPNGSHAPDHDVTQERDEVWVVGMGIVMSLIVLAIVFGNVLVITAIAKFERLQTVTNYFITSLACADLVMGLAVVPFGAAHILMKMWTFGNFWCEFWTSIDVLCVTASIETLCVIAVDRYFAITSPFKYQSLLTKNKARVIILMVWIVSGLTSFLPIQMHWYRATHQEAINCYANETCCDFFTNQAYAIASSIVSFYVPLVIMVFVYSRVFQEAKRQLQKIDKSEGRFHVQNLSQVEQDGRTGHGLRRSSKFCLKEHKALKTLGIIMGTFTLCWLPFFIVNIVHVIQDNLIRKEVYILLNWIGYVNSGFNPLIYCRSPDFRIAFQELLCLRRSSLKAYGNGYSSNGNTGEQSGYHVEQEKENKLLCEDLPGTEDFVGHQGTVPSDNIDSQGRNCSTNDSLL
melting point,EC50 [1] [µM],beta-1 (IA) maximal response relative to isoproterenol [1],EC50 [2] [µM],beta-3 (IA) maximal response relative to isoproterenol [2],EC50 [3] [µM],beta-2 (IA) maximal response relative to isoproterenol [3],Compound
205 to 218 °C,3.6,(0.41),0.016,(0.91),0.61,(0.28),"COc1ccc(NS(=O)(=O)c2ccc(N3CCC(NCC(O)c4ccc(O)c(NS(C)(=O)=O)c4)CC3)cc2)cc1OC (centres unmarked) [Example 8, N-(3,4-Dimethoxy-phenyl)-4-{4-[2-hydroxy-2-(4-hydroxy-3-methanesulfonylamino-phenyl)-ethylamino]-piperidin-1-yl}-benzenesulfonamide]"
101 to 106 °C,–,–,0.33,(0.83),–,–,"COc1ccc(NS(=O)(=O)c2ccc(N3CCC(NC[C@H](O)COc4ccc(O)cc4)CC3)cc2)cc1OC [Example 11, N-(3,4-Dimethoxy-phenyl)-4-{4-[(2S)-2-hydroxy-3-(4-hydroxy-phenoxy)-propylamino]-piperidin-1-yl}-benzenesulfonamide]"
69 to 75 °C,–,–,0.01,(1),–,–,"CCCCNS(=O)(=O)c1ccc(N2CCC(NC[C@H](O)COc3cccc4[nH]c(=O)[nH]c34)CC2)cc1 [Example 12, N-Butyl-4-{4-[(2S)-2-hydroxy-3-(2-oxo-2,3-dihydro-1H-benzoimidazol-4-yloxy)-propylamino]-piperidin-1-yl}-benzenesulfonamide]"
166 to 179 °C,–,–,0.05,(0.7),–,–,"CCCCNS(=O)(=O)c1ccc(N2CCC(NC[C@H](O)COc3cccc4[nH]c5ccccc5c34)CC2)cc1 [Example 13, N-Butyl-4-{4-[(2S)-3-(9H-carbazol-4-yloxy)-2-hydroxy-propylamino]-piperidin-1-yl}-benzenesulfonamide]"
71 to 75 °C,0.64,(1),0.001,(1.3),0.17,(0.53),"CCCCNS(=O)(=O)c1ccc(N2CCC(NC[C@H](O)c3ccc(O)c(NS(C)(=O)=O)c3)CC2)cc1 [Example 14, N-Butyl-4-{4-[(2R)-2-hydroxy-2-(4-hydroxy-3-methanesulfonylamino-phenyl)-ethylamino]-piperidin-1-yl}-benzenesulfonamide]"
52 to 58 °C,13,(0.23),0.001,(1),0.16,(0.37),"CC(C)OC(=O)C1CCCN1S(=O)(=O)c1ccc(N2CCC(NCC(O)c3ccc(O)c(NS(C)(=O)=O)c3)CC2)cc1 (centres unmarked) [Example 15, 1-(4-{4-[2-Hydroxy-2-(4-hydroxy-3-methanesulfonylamino-phenyl)-ethylamino]-piperidin-1-yl}-benzenesulfonyl)-pyrrolidine-2-carboxylic Acid Isopropyl Ester]"
74 to 83 °C,–,–,0.003,(0.86),–,–,"CC(C)OC(=O)C1CCCN1S(=O)(=O)c1ccc(N2CCC(NCC(O)COc3cccc4[nH]c(=O)[nH]c34)CC2)cc1 (centres unmarked) [Example 16, 1-(4-{4-[2-Hydroxy-3-(2-oxo-2,3-dihydro-1H-benzoimidazol-4-yloxy)-propylamino]-piperidin-1-yl}-benzenesulfonyl)-pyrrolidine-2-carboxylic Acid Isopropyl Ester]"
36 to 39 °C,–,–,0.028,(0.81),–,–,"CNC(=O)C1CCCN1S(=O)(=O)c1ccc(N2CCC(NC[C@H](O)COc3cccc4[nH]c(=O)[nH]c34)CC2)cc1 (stereo partly drawn) [Example 17, 1-(4-{4-[(2S)-2-Hydroxy-3-(2-oxo-2,3-dihydro-1H-benzoimidazol-4-yloxy)-propylamino]-piperidin-1-yl}-benzenesulfonyl)-pyrrolidine-2-carboxylic Acid Methylamide]"
59 to 64 °C,0.79,(0.54),0.007,(1),–,(0.2),"CCCCN(CC(=O)OCc1ccccc1)S(=O)(=O)c1ccc(N2CCC(NC[C@H](O)c3ccc(O)c(NS(C)(=O)=O)c3)CC2)cc1 [Example 19, [Butyl-(4-{4-[(2R)-2-hydroxy-2-(4-hydroxy-3-methanesulfonylamino-phenyl)-ethylamino]-piperidin-1-yl}-benzenesulfonyl)-amino]-acetic Acid Benzyl Ester]"
62 to 69 °C,0.06,(0.88),0.001,(1),0.64,(0.82),"CS(=O)(=O)Nc1cc([C@@H](O)CNC2CCN(c3ccc(S(=O)(=O)N4CCC[C@@H]4C(=O)OCc4ccccc4)cc3)CC2)ccc1O [Example 21, (2R)-1-(4-{4-[(2R)-2-Hydroxy-2-(4-hydroxy-3-methanesulfonylamino-phenyl)-ethylamino]-piperidin-1-yl}-benzenesulfonyl)-pyrrolidine-2-carboxylic Acid Benzyl Ester]"
65 to 71 °C,0.2,(1.08),0.002,(1),0.04,(0.63),"CS(=O)(=O)Nc1cc([C@@H](O)CNC2CCN(c3ccc(S(=O)(=O)N4CCC[C@H]4C(=O)OCc4ccccc4)cc3)CC2)ccc1O [Example 22, (2S)-1-(4-{4-[(2R)-2-Hydroxy-2-(4-hydroxy-3-methanesulfonylamino-phenyl)-ethylamino]-piperidin-1-yl}-benzenesulfonyl)-pyrrolidine-2-carboxylic Acid Benzyl Ester]"
94 to 95 °C,1.32,(0.68),0.016,(1),1.67,(0.89),"CCCCN(CC(=O)OCC)S(=O)(=O)c1ccc(N2CCC(NC[C@H](O)c3ccc(O)c(NS(C)(=O)=O)c3)CC2)cc1 [Example 23, [Butyl-(4-{4-[(2R)-2-hydroxy-2-(4-hydroxy-3-methanesulfonylamino-phenyl)-ethylamino]-piperidin-1-yl}-benzenesulfonyl)-amino]-acetic Acid Ethyl Ester]"
78 to 81 °C,1,(0.35),0.033,(0.88),1,(0.68),"CS(=O)(=O)Nc1cc([C@@H](O)CNC2CCN(c3ccc(S(=O)(=O)NCCO)cc3)CC2)ccc1O [Example 24, N-(2-Hydroxyethyl)-4-{4-[(2R)-2-hydroxy-2-(4-hydroxy-3-methanesulfonylamino-phenyl)-ethylamino]-piperidin-1-yl)-benzenesulfonamide]"
115 to 118 °C,0.02,(0.74),0.001,(1),0.7,(0.63),"Cc1ccc(S(=O)(=O)c2ccc(N3CCC(NCC(O)c4ccc(O)c(NS(C)(=O)=O)c4)CC3)cc2)cc1 (centres unmarked) [Example 45, N-[2-Hydroxy-5-(1-hydroxy-2-{1-[4-(toluene-4-sulfonyl)-phenyl]-piperidin-4-ylamino}-ethyl)-phenyl]-methanesulfonamide]"
130 to 132 °C,–,–,0.009,(1.1),–,–,"Cc1ccc(S(=O)(=O)c2ccc(N3CCC(NC[C@H](O)COc4cccc5[nH]c(=O)[nH]c45)CC3)cc2)cc1 [Example 46, 4-((2S)-2-Hydroxy-3-{1-[4-(toluene-4-sulfonyl)-phenyl]-piperidin-4-ylamino}-propoxy)-1,3-dihydro-benzoimidazol-2-one]"
230 °C (dec.),–,–,0.009,(0.96),–,–,"O=C1CN(S(=O)(=O)c2ccc(N3CCC(NC[C@H](O)COc4cccc5[nH]c(=O)[nH]c45)CC3)cc2)C(=O)N1 [Example 49, 1-(4-{4-[(2S)-2-Hydroxy-3-(2-oxo-2,3-dihydro-1H-benzoimidazol-4-yloxy)-propylamino]-piperidin-1-yl}-benzenesulfonyl)-imidazolidine-2,4-dione]"
